The numbers were not newly measured in patent US20260216238A1, “TETRATHIOMOLYBDIC ACID FOR USE IN TREATING COPPER METABOLISM-ASSOCIATED DISEASES OR DISORDERS (WILSON DISEASE)” (Alexion Pharmaceuticals, Inc., priority 2023, published 2026), which cites them from elsewhere.

This series has as its system patients with Wilson disease (WD). Particulars: cited from earlier work; for patients with worsening of neurological symptoms on initiation of treatment: in vivo.

The structures appear in SMILES notation.

On to `[Zn]` [zinc], for which the “patients with gastric irritation or gastritis” value (Schilsky et al., 2022) is listed as “~ ⅓”. For the same compound, the hepatic treatment failure (long-term follow-up (Weiss et al., 2011)) was 14/88.

`CC(C)(S)[C@@H](N)C(=O)O` [penicillamine, (2S)-2-amino-3-methyl-3-sulfanylbutanoic acid]: the “patients with worsening of neurological symptoms on initiation of treatment” value was “approximately 25%”. Besides, the “patients with severe side effects requiring drug withdrawal” value (Schilsky et al., 2022) was “approximately 30%”.

As to `NCCNCCNCCN` [trientine, N′-[2-(2-aminoethylamino)ethyl]ethane-1,2-diamine], the “patients with worsening of neurological symptoms on initiation of treatment” value is recorded as “approximately 25%”.
